Laboratory results from publication PMC11233931, “Remodeling tumor‐associated macrophage for anti‐cancer effects by rational design of irreversible inhibition of mitogen‐activated protein kinase‐activated protein kinase 2” (MedComm, 2024).

Tests used:
Assay in all cases: Eurofins kinase selectivity profile against 380 other human recombinant kinases (Table S2)
Assay type in all cases: biochemical
[1] = target: T1, 380 human recombinant protein kinases (Homo sapiens, UniProt O96017); settings: CHK2(h), read-out: Inhibition rate
T1 construct: purchased Eurofins (Celle Lévescault)
T1 sequence (O96017 whole entry): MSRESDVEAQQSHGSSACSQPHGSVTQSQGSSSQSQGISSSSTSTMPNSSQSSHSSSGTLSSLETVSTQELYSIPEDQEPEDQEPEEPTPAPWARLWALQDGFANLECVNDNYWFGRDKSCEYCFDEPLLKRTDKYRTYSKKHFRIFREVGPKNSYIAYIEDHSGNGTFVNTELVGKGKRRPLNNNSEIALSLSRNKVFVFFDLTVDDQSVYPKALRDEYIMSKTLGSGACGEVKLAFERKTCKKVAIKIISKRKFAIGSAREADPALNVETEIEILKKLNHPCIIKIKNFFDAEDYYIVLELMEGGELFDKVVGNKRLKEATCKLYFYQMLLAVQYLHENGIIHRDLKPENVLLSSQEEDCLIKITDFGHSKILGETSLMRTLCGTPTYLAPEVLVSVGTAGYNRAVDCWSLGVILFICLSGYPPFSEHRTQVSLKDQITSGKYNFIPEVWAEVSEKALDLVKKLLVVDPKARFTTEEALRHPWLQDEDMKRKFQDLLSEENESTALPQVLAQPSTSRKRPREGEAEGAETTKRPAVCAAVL
In short: (§1)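 To gauge specificity for MK2, the compound is profiled externally at various concentrations on recombinant human kinases, 380 in total.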

[2] = target: T2, 380 human recombinant protein kinases (Homo sapiens, UniProt P00519, T315I); settings: Abl(T315I)(h), read-out: Inhibition rate
T2 construct: purchased Eurofins (Celle Lévescault)
In short: as §1

[3] = target: T3, 380 human recombinant protein kinases (Homo sapiens, UniProt Q13188); settings: MST2(h), read-out: Inhibition rate
T3 construct: purchased Eurofins (Celle Lévescault)
T3 sequence (Q13188 1-491): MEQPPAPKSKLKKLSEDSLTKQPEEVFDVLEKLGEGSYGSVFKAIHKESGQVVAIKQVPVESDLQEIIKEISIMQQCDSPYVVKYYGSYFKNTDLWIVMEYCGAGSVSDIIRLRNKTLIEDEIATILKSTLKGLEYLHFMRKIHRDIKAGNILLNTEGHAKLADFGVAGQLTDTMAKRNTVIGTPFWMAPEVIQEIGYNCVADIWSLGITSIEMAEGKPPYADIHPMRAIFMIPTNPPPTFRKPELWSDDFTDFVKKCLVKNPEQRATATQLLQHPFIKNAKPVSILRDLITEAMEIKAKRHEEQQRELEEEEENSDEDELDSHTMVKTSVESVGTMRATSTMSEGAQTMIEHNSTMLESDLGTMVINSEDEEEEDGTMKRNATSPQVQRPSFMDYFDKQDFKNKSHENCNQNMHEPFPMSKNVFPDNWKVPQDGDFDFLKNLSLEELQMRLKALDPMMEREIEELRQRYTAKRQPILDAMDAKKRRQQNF
In short: as §1

[4] = target: T4, 380 human recombinant protein kinases (Homo sapiens, UniProt Q13523); settings: PRP4(h), read-out: Inhibition rate
T4 construct: purchased Eurofins (Celle Lévescault)
T4 sequence (Q13523 whole entry): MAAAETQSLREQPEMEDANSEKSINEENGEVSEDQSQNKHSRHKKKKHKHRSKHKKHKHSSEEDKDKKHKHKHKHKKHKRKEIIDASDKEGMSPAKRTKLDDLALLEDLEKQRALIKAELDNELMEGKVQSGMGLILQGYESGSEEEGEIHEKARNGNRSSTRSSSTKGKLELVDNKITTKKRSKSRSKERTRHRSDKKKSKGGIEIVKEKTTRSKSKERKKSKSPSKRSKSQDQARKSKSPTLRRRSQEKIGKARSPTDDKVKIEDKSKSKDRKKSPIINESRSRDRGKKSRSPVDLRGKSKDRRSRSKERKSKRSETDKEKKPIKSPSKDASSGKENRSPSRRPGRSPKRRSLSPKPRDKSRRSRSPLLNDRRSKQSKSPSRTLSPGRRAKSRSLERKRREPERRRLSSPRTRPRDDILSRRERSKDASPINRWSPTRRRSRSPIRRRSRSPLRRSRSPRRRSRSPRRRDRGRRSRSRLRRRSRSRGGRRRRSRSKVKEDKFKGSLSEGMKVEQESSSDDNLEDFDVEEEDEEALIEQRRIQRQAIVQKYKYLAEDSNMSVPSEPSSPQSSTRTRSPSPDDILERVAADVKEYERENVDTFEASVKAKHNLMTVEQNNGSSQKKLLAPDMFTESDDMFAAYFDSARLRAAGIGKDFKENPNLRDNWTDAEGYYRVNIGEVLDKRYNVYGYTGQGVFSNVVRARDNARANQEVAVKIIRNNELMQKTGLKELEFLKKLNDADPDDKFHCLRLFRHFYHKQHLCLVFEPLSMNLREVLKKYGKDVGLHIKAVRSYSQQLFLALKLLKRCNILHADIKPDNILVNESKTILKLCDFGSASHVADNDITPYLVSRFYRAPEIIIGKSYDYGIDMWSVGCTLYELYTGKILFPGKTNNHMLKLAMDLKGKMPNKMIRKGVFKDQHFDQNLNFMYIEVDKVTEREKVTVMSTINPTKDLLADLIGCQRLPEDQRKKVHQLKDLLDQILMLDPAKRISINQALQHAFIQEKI
In short: as §1

[5] = target: T5, 380 human recombinant protein kinases (Homo sapiens, UniProt Q13882); settings: BRK(h), read-out: Inhibition rate
T5 construct: purchased Eurofins (Celle Lévescault)
T5 sequence (Q13882 whole entry): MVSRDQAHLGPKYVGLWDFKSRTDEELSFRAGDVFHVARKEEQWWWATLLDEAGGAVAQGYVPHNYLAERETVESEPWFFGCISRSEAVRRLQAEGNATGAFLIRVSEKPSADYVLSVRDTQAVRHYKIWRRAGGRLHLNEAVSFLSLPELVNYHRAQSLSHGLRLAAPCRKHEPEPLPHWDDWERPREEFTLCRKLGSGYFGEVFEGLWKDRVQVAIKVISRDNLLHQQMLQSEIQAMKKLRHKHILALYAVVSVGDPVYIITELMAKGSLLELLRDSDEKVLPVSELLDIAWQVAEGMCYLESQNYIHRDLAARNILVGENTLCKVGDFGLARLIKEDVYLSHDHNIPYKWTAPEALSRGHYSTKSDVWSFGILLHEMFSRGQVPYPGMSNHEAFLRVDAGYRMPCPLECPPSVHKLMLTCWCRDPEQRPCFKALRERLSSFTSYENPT
In short: as §1

[6] = target: T6, 380 human recombinant protein kinases (Homo sapiens, UniProt Q7KZI7); settings: PAR-1Bα(h), read-out: Inhibition rate
T6 construct: purchased Eurofins (Celle Lévescault)
T6 sequence (Q7KZI7 whole entry): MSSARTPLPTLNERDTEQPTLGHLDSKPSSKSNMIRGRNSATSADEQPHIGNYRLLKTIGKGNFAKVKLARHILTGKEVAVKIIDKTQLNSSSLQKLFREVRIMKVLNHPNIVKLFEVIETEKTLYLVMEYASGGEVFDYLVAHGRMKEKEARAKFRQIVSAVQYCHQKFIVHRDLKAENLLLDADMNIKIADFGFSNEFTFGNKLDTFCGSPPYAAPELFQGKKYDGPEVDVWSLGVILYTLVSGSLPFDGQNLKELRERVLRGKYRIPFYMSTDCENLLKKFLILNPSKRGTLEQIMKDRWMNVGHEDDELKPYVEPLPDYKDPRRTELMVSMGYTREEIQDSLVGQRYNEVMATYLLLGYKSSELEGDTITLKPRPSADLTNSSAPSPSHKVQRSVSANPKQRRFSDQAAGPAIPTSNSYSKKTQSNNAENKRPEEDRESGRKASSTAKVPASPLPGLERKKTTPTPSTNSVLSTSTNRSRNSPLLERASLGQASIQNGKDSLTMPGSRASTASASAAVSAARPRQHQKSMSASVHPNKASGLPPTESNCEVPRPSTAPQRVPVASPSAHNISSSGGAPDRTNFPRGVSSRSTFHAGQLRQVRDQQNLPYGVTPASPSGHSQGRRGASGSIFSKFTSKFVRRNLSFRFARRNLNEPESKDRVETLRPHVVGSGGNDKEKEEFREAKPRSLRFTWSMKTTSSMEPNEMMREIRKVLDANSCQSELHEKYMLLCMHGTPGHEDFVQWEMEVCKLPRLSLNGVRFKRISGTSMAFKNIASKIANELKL
In short: as §1

[7] = target: T7, 380 human recombinant protein kinases (Homo sapiens, UniProt Q9HAZ1); settings: CLK4(h), read-out: Inhibition rate
T7 construct: purchased Eurofins (Celle Lévescault)
T7 sequence (Q9HAZ1 whole entry): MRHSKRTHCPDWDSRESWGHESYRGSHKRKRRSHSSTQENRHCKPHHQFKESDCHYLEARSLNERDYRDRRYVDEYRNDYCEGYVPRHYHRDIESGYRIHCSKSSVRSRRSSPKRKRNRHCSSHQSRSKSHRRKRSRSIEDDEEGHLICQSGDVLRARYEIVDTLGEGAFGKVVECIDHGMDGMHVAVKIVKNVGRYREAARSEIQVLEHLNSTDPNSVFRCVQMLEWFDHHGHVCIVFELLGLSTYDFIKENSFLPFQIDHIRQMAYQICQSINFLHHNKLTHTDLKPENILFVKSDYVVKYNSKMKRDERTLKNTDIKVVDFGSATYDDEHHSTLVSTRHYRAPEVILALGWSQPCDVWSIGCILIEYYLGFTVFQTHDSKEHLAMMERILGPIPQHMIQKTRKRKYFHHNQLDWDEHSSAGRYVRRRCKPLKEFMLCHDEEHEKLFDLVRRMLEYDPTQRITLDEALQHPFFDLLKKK
In short: as §1

[8] = target: T8, 380 human recombinant protein kinases (Homo sapiens, UniProt Q9HC98); settings: NEK6(h), read-out: Inhibition rate
T8 construct: purchased Eurofins (Celle Lévescault)
T8 sequence (Q9HC98 whole entry): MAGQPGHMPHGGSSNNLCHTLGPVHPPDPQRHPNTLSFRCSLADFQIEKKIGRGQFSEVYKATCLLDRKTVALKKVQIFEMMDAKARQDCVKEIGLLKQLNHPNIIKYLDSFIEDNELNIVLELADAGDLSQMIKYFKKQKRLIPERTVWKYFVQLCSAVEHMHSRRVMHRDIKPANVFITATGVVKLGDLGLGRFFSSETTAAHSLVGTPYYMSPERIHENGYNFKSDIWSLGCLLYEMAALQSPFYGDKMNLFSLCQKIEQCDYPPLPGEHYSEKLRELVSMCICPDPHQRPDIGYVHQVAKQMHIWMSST
In short: as §1

[9] = target: T9, 380 human recombinant protein kinases (Homo sapiens, UniProt Q9NYV4); settings: CDK12/cyclinK(h), read-out: Inhibition rate
T9 construct: purchased Eurofins (Celle Lévescault)
T9 sequence (Q9NYV4 whole entry): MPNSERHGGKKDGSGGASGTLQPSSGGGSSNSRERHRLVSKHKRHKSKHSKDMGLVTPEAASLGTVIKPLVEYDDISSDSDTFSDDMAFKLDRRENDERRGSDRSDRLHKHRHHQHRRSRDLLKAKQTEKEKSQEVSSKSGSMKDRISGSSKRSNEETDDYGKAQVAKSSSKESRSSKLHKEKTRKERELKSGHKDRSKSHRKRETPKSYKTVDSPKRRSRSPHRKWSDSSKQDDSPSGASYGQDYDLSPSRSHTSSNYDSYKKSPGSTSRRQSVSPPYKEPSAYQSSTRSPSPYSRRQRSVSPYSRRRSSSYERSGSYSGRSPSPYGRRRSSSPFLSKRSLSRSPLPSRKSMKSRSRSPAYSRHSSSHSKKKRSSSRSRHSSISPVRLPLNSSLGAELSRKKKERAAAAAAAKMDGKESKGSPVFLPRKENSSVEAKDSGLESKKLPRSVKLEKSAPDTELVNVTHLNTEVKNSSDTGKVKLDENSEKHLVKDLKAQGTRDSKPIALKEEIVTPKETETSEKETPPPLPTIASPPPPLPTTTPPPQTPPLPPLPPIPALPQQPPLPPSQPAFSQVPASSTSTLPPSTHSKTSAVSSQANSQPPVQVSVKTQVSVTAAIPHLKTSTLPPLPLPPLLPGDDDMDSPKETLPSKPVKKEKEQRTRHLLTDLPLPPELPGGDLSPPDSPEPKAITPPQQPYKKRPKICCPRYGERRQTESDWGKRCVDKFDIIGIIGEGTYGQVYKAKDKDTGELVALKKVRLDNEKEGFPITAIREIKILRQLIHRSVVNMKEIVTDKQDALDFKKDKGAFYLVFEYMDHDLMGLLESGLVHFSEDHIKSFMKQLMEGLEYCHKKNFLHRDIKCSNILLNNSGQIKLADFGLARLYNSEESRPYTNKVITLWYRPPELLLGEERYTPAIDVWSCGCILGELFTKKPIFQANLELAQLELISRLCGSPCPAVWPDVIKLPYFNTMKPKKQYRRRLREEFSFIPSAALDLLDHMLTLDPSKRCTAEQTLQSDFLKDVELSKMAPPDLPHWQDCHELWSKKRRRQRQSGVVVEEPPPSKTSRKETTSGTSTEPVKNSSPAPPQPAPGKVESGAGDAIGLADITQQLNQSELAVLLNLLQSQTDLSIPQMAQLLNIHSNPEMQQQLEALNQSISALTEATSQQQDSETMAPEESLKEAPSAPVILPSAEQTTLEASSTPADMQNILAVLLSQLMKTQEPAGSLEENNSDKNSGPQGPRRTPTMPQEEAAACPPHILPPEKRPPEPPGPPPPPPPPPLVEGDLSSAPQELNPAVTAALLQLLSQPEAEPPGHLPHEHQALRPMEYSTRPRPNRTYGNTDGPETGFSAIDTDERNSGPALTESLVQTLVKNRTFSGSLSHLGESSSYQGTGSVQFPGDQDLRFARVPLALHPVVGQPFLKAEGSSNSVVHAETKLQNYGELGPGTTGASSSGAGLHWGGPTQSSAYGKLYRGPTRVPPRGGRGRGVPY
In short: as §1

[10] = target: T10, 380 human recombinant protein kinases (Homo sapiens, UniProt Q9UBE8); settings: NLK(h), read-out: Inhibition rate
T10 construct: purchased Eurofins (Celle Lévescault)
T10 sequence (Q9UBE8 1-527): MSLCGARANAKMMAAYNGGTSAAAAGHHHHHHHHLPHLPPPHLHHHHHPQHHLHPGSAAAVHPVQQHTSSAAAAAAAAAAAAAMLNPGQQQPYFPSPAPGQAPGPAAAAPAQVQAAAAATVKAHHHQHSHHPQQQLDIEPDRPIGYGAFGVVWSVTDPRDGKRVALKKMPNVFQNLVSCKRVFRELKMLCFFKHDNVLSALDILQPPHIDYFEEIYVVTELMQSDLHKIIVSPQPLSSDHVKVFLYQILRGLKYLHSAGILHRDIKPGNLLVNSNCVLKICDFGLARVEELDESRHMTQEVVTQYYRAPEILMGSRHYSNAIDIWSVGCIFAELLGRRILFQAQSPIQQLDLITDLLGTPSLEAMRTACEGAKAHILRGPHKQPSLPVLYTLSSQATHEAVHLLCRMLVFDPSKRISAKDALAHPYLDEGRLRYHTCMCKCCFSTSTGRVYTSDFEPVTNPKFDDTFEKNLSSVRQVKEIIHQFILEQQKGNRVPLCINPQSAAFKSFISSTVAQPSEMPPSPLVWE
In short: as §1

C=CC(=O)Nc1cc(-c2cc(-c3cc4c([nH]3)CCNC4=O)ccn2)ccc1OC(F)(F)F [compound 11]
inhibition at 0.01 µM ([1]; 10 nM): 3% | inhibition at 0.1 µM ([1]; 100 nM): 16% | inhibition at 1 µM ([1]; 1000 nM): 55% | inhibition at 0.01 µM ([2]; 10 nM): 6% | inhibition at 0.1 µM ([2]; 100 nM): 11% | inhibition at 1 µM ([2]; 1000 nM): 31% | inhibition at 0.01 µM ([3]; 10 nM): -7% | inhibition at 0.1 µM ([3]; 100 nM): 0% | inhibition at 1 µM ([3]; 1000 nM): 6% | inhibition at 0.01 µM ([4]; 10 nM): -1% | inhibition at 0.1 µM ([4]; 100 nM): -3% | inhibition at 1 µM ([4]; 1000 nM): 12% | inhibition at 0.01 µM ([5]; 10 nM): 0% | inhibition at 0.1 µM ([5]; 100 nM): -5% | inhibition at 1 µM ([5]; 1000 nM): -7% | inhibition at 0.01 µM ([6]; 10 nM): -6% | inhibition at 0.1 µM ([6]; 100 nM): -2% | inhibition at 1 µM ([6]; 1000 nM): -3% | inhibition at 0.01 µM ([7]; 10 nM): -6% | inhibition at 0.1 µM ([7]; 100 nM): 25% | inhibition at 1 µM ([7]; 1000 nM): 76% | inhibition at 0.01 µM ([8]; 10 nM): -4% | inhibition at 0.1 µM ([8]; 100 nM): -5% | inhibition at 1 µM ([8]; 1000 nM): -3% | inhibition at 0.01 µM ([9]; 10 nM): -1% | inhibition at 0.1 µM ([9]; 100 nM): 1% | inhibition at 1 µM ([9]; 1000 nM): 5% | inhibition at 0.01 µM ([10]; 10 nM): 6% | inhibition at 0.1 µM ([10]; 100 nM): 16% | inhibition at 1 µM ([10]; 1000 nM): 42%
